# Earlier results, collected in US20230219912A1, “HALOGENATED BENZOTHIADIAZINES FOR THE TREATMENT OF CANCER” (BOARD OF REGENTS OF THE UNIVERSITY OF NEBRASKA, priority 2020, published 2023).
# Tests used:
# TTK = biological target: T1, TTK (Homo sapiens, UniProt P33981); conditions: 100 μM; cited from earlier work
# T1 sequence (P33981 1-857): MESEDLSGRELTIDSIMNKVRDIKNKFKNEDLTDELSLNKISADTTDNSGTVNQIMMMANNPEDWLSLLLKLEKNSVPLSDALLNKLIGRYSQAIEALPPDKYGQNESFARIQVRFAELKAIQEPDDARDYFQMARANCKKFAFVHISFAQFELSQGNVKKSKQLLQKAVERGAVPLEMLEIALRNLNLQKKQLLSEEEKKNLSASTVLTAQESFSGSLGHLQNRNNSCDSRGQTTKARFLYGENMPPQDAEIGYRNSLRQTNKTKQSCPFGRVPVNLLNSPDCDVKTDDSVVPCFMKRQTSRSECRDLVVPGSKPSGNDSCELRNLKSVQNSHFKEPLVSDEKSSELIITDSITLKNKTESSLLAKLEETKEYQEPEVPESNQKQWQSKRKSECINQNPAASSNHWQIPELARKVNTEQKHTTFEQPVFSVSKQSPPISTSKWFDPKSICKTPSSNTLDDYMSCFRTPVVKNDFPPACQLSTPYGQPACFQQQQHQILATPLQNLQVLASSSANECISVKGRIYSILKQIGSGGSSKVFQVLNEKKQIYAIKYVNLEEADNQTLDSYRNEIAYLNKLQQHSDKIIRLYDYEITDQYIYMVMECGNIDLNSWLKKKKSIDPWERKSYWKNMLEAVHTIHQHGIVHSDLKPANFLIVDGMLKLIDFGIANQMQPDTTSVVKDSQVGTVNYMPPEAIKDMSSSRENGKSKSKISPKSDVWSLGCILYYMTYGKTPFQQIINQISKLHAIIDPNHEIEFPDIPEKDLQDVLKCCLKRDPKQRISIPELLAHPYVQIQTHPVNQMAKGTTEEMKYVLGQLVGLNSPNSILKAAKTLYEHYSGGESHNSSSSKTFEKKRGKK
# MDA-MB-468 TNBC cells = conditions: cited from earlier work
smiles,measurement,setting,value
"CC1=Nc2ccc(Cl)cc2S(=O)(=O)N1 [Diazoxide, 7-chloro-3-methyl-2H-1,2,4-benzothiadiazine 1,1-dioxide, reference compound]",inhibition of TTK,TTK,15%
same,IC50,MDA-MB-468 TNBC cells,870 nM
